Laboratory results from US20060004004A1, “Novel gamma secretase inhibitors” (Schering Corporation, priority 2004, published 2006).
“And” between values parts separate entries of the source, which are not always exact repeats. Equal entries are not always repeated. Where two headings read alike, the source gives them in different places.

Molecular target: T1, γ-secretase (Homo sapiens, UniProt P49768)
T1 construct: endogenous in cells; host or cells: membranes of 293 cells (T-REx, clone pTRE.15) with tetracycline-induced SPC99-Lon
Assay: Gamma secretase activity, membrane assay with Aβ 40 / Aβ 42 ECL immunoassay (Zhang et al.)
Assay type: biochemical
Description: Antibodies W02, G2-10, and G2-11 were obtained from Dr. Konrad Beyreuther (University of Heidelberg, Heidelberg, Germany). W02 recognizes residues 5-8 of Aβ peptide, while G2-10 and G2-11 recognize the specific C-terminal structure of Aβ 40 and Aβ 42, respectively. Biotin-4G8 was purchased from Senetec (St. Louis, Mo.). All tissue culture reagents used in this work were from Life Technologies, Inc., unless otherwise specified. Pepstatin A was purchased from Roche Molecular Biochemicals; DFK167 was from Enzyme Systems Products (Livermore, Calif.).
Upon insertion into the membrane, the 17 amino acid signal peptide is processed, leaving an additional leucine at the N-terminus of Aβ. SPC99-lon was cloned into the pcDNA4/TO vector (Invitrogen) and transfected into 293 cells stably transfected with pcDNA6/TR, which is provided in the T-REX system (Invitrogen). The transfected cells were selected in Dulbecco's modified Eagle's media (DMEM) supplemented with 10% fetal bovine serum, 100 units/mL penicillin, 100 µg/mL streptomycin, 250 µg/mL zeocin, and 5 µg/mL blasticidin (Invitrogen). Colonies were screened for Aβ production by inducing C99 expression with […] tetracycline for 16-20 h and analyzing conditioned media with a sandwich immunoassay (see below). One of the clones, designated as pTRE.15, was used in these studies.
C99 expression in cells was induced with […] tetracycline for 20 h. The cells were pretreated with […] 12-myristate 13-acetate (PMA) and […] brefeldin A (BFA) for 5-6 h at 37° C. before harvesting. The cells were washed 3 times with cold phosphate-buffered saline (PBS) and harvested in buffer A containing 20 mM Hepes (pH 7.5), 250 mM sucrose, 50 mM KCl, 2 mM EDTA, 2 mM EGTA, and Complete protease inhibitor tablets (Roche Molecular Biochemicals). The cell pellets were flash-frozen in liquid nitrogen and stored at −70° C. before use.
To make membranes, the cells were resuspended in buffer A and lysed in a nitrogen bomb at 600 psi. The cell lysate was centrifuged at 1500 g for 10 min to remove nuclei and large cell debris. The supernatant was centrifuged at 100000 g for 1 h. The membrane pellet was resuspended in buffer A plus 0.5 M NaCl, and the membranes were collected by centrifugation at 200000 g for 1 h. The salt-washed membrane pellet was washed again in buffer A and centrifuged at 100000 g for 1 h. The final membrane pellet was resuspended in a small volume of buffer A using a Teflon-glass homogenizer. The protein concentration was determined, and membrane aliquots were flash-frozen in liquid nitrogen and stored at −70° C.
γ-Secretase Reaction and Aβ Analysis To measure γ-secretase activity, membranes were incubated at 37° C. for 1 h in […] of buffer containing 20 mM Hepes (pH 7.0) and 2 mM EDTA. At the end of the incubation, Aβ 40 and Aβ 42 were measured using an electrochemiluminescence (ECL)-based immunoassay. Aβ 40 was identified with antibody pairs TAG-G2-10 and biotin-W02, while Aβ 42 was identified with TAG-G2-11 and biotin-4G8. The ECL signal was measured using an ECL-M8 instrument (IGEN International, Inc.) according to the manufacturer's instructions. The data presented were the means of the duplicate or triplicate measurements in each experiment.

[1] = membranes of 293 cells expressing SPC99-Lon (clone pTRE.15), 37° C., 1 h, read-out: IC50 (μM), γ-secretase inhibitory activity
[2] = same membrane assay, ranges given as 'about', read-out: IC50 values within the range

SMILES | IC50 [1] | IC50 [2]
O=C(CC1(C2CCCC(c3cc(F)cc(F)c3)N2S(=O)(=O)c2ccc(Cl)cc2)CC1)N1CCC(N2CCCCC2)CC1 (centres unmarked) [Example 4] | 0.0014 µM | 0.001 to 0.2 µM and 0.001 to 0.02 µM
O=C(N1CCCC1)C1([C@H]2CCC[C@@H](c3cc(F)cc(F)c3)N2S(=O)(=O)c2ccc(Cl)cc2)CC1 [Example 8] |  | 0.001 to 0.2 µM
O=S(=O)(CC1([C@H]2CCC[C@@H](c3cc(F)cc(F)c3)N2S(=O)(=O)c2ccc(Cl)cc2)CC1)N1CCC[C@H]1CO [Example 22] | 0.0164 µM | 0.001 to 0.2 µM and 0.001 to 0.02 µM
O=S(=O)(CC1([C@@H]2CCC[C@H](c3cc(F)cc(F)c3)N2S(=O)(=O)c2ccc(Cl)cc2)CC1)N1CCC(N2CCCCC2)CC1 [Example 19] | 0.0119 µM | 0.001 to 0.2 µM and 0.001 to 0.02 µM
O=S(=O)(CC1([C@H]2CCC[C@@H](c3cc(F)cc(F)c3)N2S(=O)(=O)c2ccc(Cl)cc2)CC1)N1CC[C@H](O)C1 [Example 20] | 0.0151 µM | 0.001 to 0.2 µM and 0.001 to 0.02 µM
CCC1(OC)CC2CCC(C1)N2C(=O)C(O)C1([C@H]2CCC[C@@H](c3cc(F)cc(F)c3)N2S(=O)(=O)c2ccc(Cl)cc2)CC1 (some centres unmarked) [Example 28] |  | 0.001 to 0.2 µM and 0.001 to 0.02 µM
O=C(N1CCC(N2CCCCC2)CC1)C1([C@H]2CCC[C@@H](c3cc(F)cc(F)c3)N2S(=O)(=O)c2ccc(Cl)cc2)CC1 [Example 9] |  | 0.001 to 0.2 µM
C[C@@H]1CN(CCO)CCN1C(=O)C1([C@H]2CCC[C@@H](c3cc(F)cc(F)c3)N2S(=O)(=O)c2ccc(Cl)cc2)CC1 [Example 11] |  | 0.001 to 0.2 µM
O=C(CC1([C@H]2CCC[C@@H](c3cc(F)cc(F)c3)N2S(=O)(=O)c2ccc(Cl)cc2)CC1)N1CCCC1 [Example 6] |  | 0.001 to 0.2 µM
O=C(CC1(C2CCCC(c3cc(F)cc(F)c3)N2S(=O)(=O)c2ccc(Cl)cc2)CC1)N1CC[C@H](O)C1 (some centres unmarked) [Example 3] | 0.0132 µM | 0.001 to 0.2 µM and 0.001 to 0.02 µM
O=C(CC1([C@H]2CCC[C@@H](c3cc(F)cc(F)c3)N2S(=O)(=O)c2ccc(Cl)cc2)CC1)N1CCC[C@H]1CO [Example 5] | 0.0196 µM | 0.001 to 0.2 µM and 0.001 to 0.02 µM
O=C(N1CCC[C@H]1CO)C1([C@H]2CCC[C@@H](c3cc(F)cc(F)c3)N2S(=O)(=O)c2ccc(Cl)cc2)CC1 [Example 7] |  | 0.001 to 0.2 µM
O=C(CC1(C2CCCC(c3cc(F)cc(F)c3)N2S(=O)(=O)c2ccc(Cl)cc2)CC1)N1CCCCC1 (centres unmarked) [Example 2] | 0.0164 µM | 0.001 to 0.2 µM and 0.001 to 0.02 µM
CN1CCN(S(=O)(=O)CC2([C@H]3CCC[C@@H](c4cc(F)cc(F)c4)N3S(=O)(=O)c3ccc(Cl)cc3)CC2)CC1 [Example 21] | 0.0117 µM | 0.001 to 0.2 µM and 0.001 to 0.02 µM
O=S(=O)(CC1([C@H]2CCC[C@@H](c3cc(F)cc(F)c3)N2S(=O)(=O)c2ccc(Cl)cc2)CC1)N1CCN(CCO)CC1 [Example 23] | 0.0124 µM | 0.001 to 0.2 µM and 0.001 to 0.02 µM
O=C(N1CCN(CCO)CC1)C1([C@H]2CCC[C@@H](c3cc(F)cc(F)c3)N2S(=O)(=O)c2ccc(Cl)cc2)CC1 [Example 10] |  | 0.001 to 0.2 µM
O=C(N1C[C@@H](N2CCCCC2)C[C@@H]1CO)C1([C@H]2CCC[C@@H](c3cc(F)cc(F)c3)N2S(=O)(=O)c2ccc(Cl)cc2)CC1 [Example 17] |  | 0.001 to 0.2 µM
O=C(CC1([C@@H]2CCC[C@H](c3cc(F)cc(F)c3)N2S(=O)(=O)c2ccc(Cl)cc2)CC1)N1CCN(CCO)CC1 [Example 1] | 0.0028 µM | 0.001 to 0.2 µM and 0.001 to 0.02 µM

Further lines, results first:

IC50 [1] | IC50 [2] | SMILES
 | 0.001 to 0.02 µM and 0.001 to 0.2 µM | O=C(CC1([C@H]2C[C@@H](O)C[C@@H](C3CC3)N2S(=O)(=O)c2ccc(Cl)cc2)CC1)N1CCC(N2CCCCC2)CC1 [Example 46]
 | 0.001 to 0.2 µM | O=C(CC1([C@H]2CCC[C@@H](C3CC3)N2S(=O)(=O)c2ccc(Cl)cc2)CC1)N1CCN2CCCC2C1 (some centres unmarked) [Example 44]
0.0145 µM | 0.001 to 0.2 µM and 0.001 to 0.02 µM | O=S(=O)(CC1([C@H]2CCC[C@@H](c3cc(F)cc(F)c3)N2S(=O)(=O)c2ccc(Cl)cc2)CC1)N1CCC(N2CCOCC2)CC1 [Example 24]
0.0048 µM | 0.001 to 0.02 µM and 0.001 to 0.2 µM | CCC1(O)CC2CCC(C1)N2C(=O)CC1([C@H]2C[C@@H](O)C[C@@H](C3CC3)N2S(=O)(=O)c2ccc(Cl)cc2)CC1 (some centres unmarked) [Example 48]
0.0049 µM | 0.001 to 0.2 µM and 0.001 to 0.02 µM | O=C(C(O)C1([C@H]2CCC[C@@H](c3cc(F)cc(F)c3)N2S(=O)(=O)c2ccc(Cl)cc2)CC1)N1CCC(N2CCCCC2)CC1 (some centres unmarked) [Example 25]
 | 0.001 to 0.2 µM | O=C(C(O)C1([C@H]2CCC[C@@H](c3cc(F)cc(F)c3)N2S(=O)(=O)c2ccc(Cl)cc2)CC1)N1CC[C@H](O)C1 (some centres unmarked) [Example 27]
0.0068 µM | 0.001 to 0.2 µM and 0.001 to 0.02 µM | CCC1(O)CC2CCC(C1)N2C(=O)C(O)C1([C@H]2CCC[C@@H](c3cc(F)cc(F)c3)N2S(=O)(=O)c2ccc(Cl)cc2)CC1 (some centres unmarked) [Example 29]
 | 0.001 to 0.2 µM | O=C(CC1([C@H]2C[C@@H](O)C[C@@H](C3CC3)N2S(=O)(=O)c2ccc(Cl)cc2)CC1)N1CC[C@@H](O)C1 [Example 47]
 | 0.001 to 0.2 µM | O=C(C(O)C1([C@H]2CCC[C@@H](c3cc(F)cc(F)c3)N2S(=O)(=O)c2ccc(Cl)cc2)CC1)N1CCC[C@H]1CO (some centres unmarked) [Example 26]
